According to PubChem BioAssay AID1963971 (Molecular Pharmacology Branch, DTP, NCI, 2024):

Tested on: 953936-095-R-J2-PDC spheroids with HUVEC/MSC, viability
Experiment: Anticancer human tumor 953936-095-R-J2-PDC patient-derived cervical squamous cell carcinoma cell line growth inhibition [PI3K]
Details: for IC50: curve of first compound; for viability, T/C: stronger effect = lower value
From the text: Combinatorial screen of targeted agents with the PI3K inhibitors inavolisib, alpelisib, duvelisib, and copanlisib in multi-cell type tumor spheroids
A high-throughput screen of multi-cell type tumor spheroids was designed to identify active combinations of targeted small molecules and PI3K pathway inhibitors. Complex spheroids include a stromal component modeled by human endothelial cells (HUVEC) and fibroblasts modeled by human mesenchymal stem cells (MSCs). The concentration ranges selected for each drug and investigational agent were based upon clinically achievable concentrations if the clinical Cmax of the agent was known.
Compounds. The drugs and investigational agents: inavolisib (NSC800729), alpelisib (NSC765974), duvelisib (NSC772469), copanlisib (NSC816437), ipatasertib (NSC767898), afuresertib (NSC778305), talazoparib (NSC767125), sapanisertib (NSC764658), selumetinib (NSC741078), tovorafenib (DAY101, NSC766906), vemurafenib (NSC761431), ravoxertinib (NSC781343), sotorasib (NSC818433), MRTX1133 (NSC 836407), abemaciclib (NSC 768073), palbociclib (NSC758247), venetoclax (NSC 766270), SY5609 (NSC837396), enzalutamide (NSC755605), and darolutamide (NSC825331), were obtained from the National Cancer Institute (NCI) Developmental Therapeutics Program Chemical Repository. The FDA-approved anticancer drug set is available from the NCI Developmental Therapeutics Program. […] The stock solutions were prepared in dimethyl sulfoxide (DMSO, Sigma-Aldrich, St. Louis, MO, cat. D2650) at 800-fold the tested concentration and stored at -70 degrees C prior to their use. All drugs and investigational agents were tested over a range starting from a high concentration at or near the clinical Cmax and decreasing in half-log increments. If the clinical Cmax for an agent had not been determined, the highest concentration tested was 10 microM.
Cell Culture. All cells were maintained in an incubator at 37 degrees C and 5% CO2 with 95% humidity. The PDC lines were cultured according to standard operating procedures established by the NCI PDMR (https://pdmr.cancer.gov/sops/default.htm). All PDCs were thawed and cultured in Matrigel-coated flasks prepared with a working solution of 1X Ham's F-12 nutrient mix, without supplementation (Invitrogen, Waltham, MA, cat. 11765054), 100 U/mL penicillin-streptomycin (Invitrogen, cat. 15140122), and 2.5% Matrigel (Corning Inc., Corning, NY, cat. 354248) for the first three passages. The 354836-022-R-J1-PDC, 475296-252-R-J1-PDC, and 997726-040-R-J2-PDC lines were cultured in 6A media, which includes advanced DMEM/F-12 (Thermo Fisher Scientific, cat. 12634028), 10 mM HEPES (Thermo Fisher Scientific, cat. 15630080), 1X GlutaMAX supplement (Thermo Fisher Scientific, cat. 35050061), 0.1 mg/mL primocin (InvivoGen, San Diego, CA, cat. ant-pm-2), 10% defined fetal bovine serum, heat inactivated (HyClone Laboratories Inc., Logan, UT, cat. SH30070.03HI), 50% L-WRN conditioned media (ATCC, cat. CRL-3276), 1.25 mM N-Acetyl-L-cysteine (Sigma-Aldrich, cat. A9165), 10 mM nicotinamide (Sigma-Aldrich, cat. N0636), 1X B-27 supplement (Thermo Fisher Scientific, cat. 17504044), 1X N-2 supplement (Thermo Fisher Scientific, cat. 17502048), and 10 microM Y-27632 dihydrochloride (Tocris Bioscience, Bristol, United Kingdom, cat. 1254). The 624824-186-R-J2-PDC line was cultured in 6C/Colon 1B media, which includes all 6A media components plus 50 ng/mL human EGF recombinant protein (Thermo Fisher Scientific, cat. PHG0311). […]

[1] = second compound 0.0316 µM, first compound 0.00316 µM
[2] = second compound 0.0316 µM, first compound 0.01 µM
[3] = second compound 0.0316 µM, first compound 0.0316 µM
[4] = second compound 0.0316 µM, first compound 0.1 µM
[5] = second compound 0.1 µM, first compound 0.00316 µM
[6] = second compound 0.1 µM, first compound 0.01 µM
[7] = second compound 0.1 µM, first compound 0.0316 µM
[8] = second compound 0.1 µM, first compound 0.1 µM
[9] = second compound 0.316 µM, first compound 0.00316 µM
[10] = second compound 0.316 µM, first compound 0.01 µM
[11] = second compound 0.316 µM, first compound 0.0316 µM
[12] = second compound 0.316 µM, first compound 0.1 µM
[13] = second compound 1 µM, first compound 0.00316 µM
[14] = second compound 1 µM, first compound 0.01 µM
[15] = second compound 1 µM, first compound 0.0316 µM
[16] = second compound 1 µM, first compound 0.1 µM
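Note: spheroids exposed to compounds for seven days before read-out.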

CCN1CCN(Cc2ccc(Nc3ncc(F)c(-c4cc(F)c5nc(C)n(C(C)C)c5c4)n3)nc2)CC1 + CC(Nc1ccc2c(c1)OCCn1cc(N3C(=O)OCC3C(F)F)nc1-2)C(N)=O
IC50 (second compound 0.00316 µM): > 1000 nM
IC50 (second compound 0.01 µM): > 1000 nM
IC50 (second compound 0.0316 µM): > 1000 nM
IC50 (second compound 0.1 µM): 64.4 nM
IC50 (second compound 0.316 µM): < 3.16 nM
IC50 (second compound 1 µM): < 3.16 nM
viability, T/C (second compound 0.00316 µM, first compound 0.00316 µM): 102%
viability, T/C (second compound 0.00316 µM, first compound 0.01 µM): 98.5%
viability, T/C (second compound 0.00316 µM, first compound 0.0316 µM): 94.6%
viability, T/C (second compound 0.00316 µM, first compound 0.1 µM): 96.6%
viability, T/C (second compound 0.00316 µM, first compound 0.316 µM): 89.8%
viability, T/C (second compound 0.00316 µM, first compound 1 µM): 80.7%
viability, T/C (second compound 0.01 µM, first compound 0.00316 µM): 93%
viability, T/C (second compound 0.01 µM, first compound 0.01 µM): 104%
viability, T/C (second compound 0.01 µM, first compound 0.0316 µM): 94.2%
viability, T/C (second compound 0.01 µM, first compound 0.1 µM): 83.3%
viability, T/C (second compound 0.01 µM, first compound 0.316 µM): 80%
viability, T/C (second compound 0.01 µM, first compound 1 µM): 79.3%
viability, T/C [1]: 73%
viability, T/C [2]: 79.7%
viability, T/C [3]: 72.5%
viability, T/C [4]: 75.8%
viability, T/C (second compound 0.0316 µM, first compound 0.316 µM): 63.8%
viability, T/C (second compound 0.0316 µM, first compound 1 µM): 72.2%
viability, T/C [5]: 58.4%
viability, T/C [6]: 53.8%
viability, T/C [7]: 53.5%
viability, T/C [8]: 47.9%
viability, T/C (second compound 0.1 µM, first compound 0.316 µM): 45.8%
viability, T/C (second compound 0.1 µM, first compound 1 µM): 48.5%
viability, T/C [9]: 34.8%
viability, T/C [10]: 36%
viability, T/C [11]: 31.1%
viability, T/C [12]: 32.3%
viability, T/C (second compound 0.316 µM, first compound 0.316 µM): 27.6%
viability, T/C (second compound 0.316 µM, first compound 1 µM): 29.4%
viability, T/C [13]: 22%
viability, T/C [14]: 21.5%
viability, T/C [15]: 22.7%
viability, T/C [16]: 18.8%
viability, T/C (second compound 1 µM, first compound 0.316 µM): 18.4%
viability, T/C (second compound 1 µM, first compound 1 µM): 24.7%

CC(=O)c1c(C)c2cnc(Nc3ccc(N4CCNCC4)cn3)nc2n(C2CCCC2)c1=O + CC(Nc1ncnc2nc[nH]c12)c1cc2cccc(Cl)c2c(=O)n1-c1ccccc1
IC50 (second compound 0.0316 µM): > 100 nM
IC50 (second compound 0.1 µM): > 100 nM
IC50 (second compound 0.316 µM): > 100 nM
IC50 (second compound 1 µM): > 100 nM
IC50 (second compound 3.16 µM): > 100 nM
IC50 (second compound 10 µM): > 100 nM
viability, T/C (second compound 0.0316 µM, first compound 0.000316 µM): 91.6%
viability, T/C (second compound 0.0316 µM, first compound 0.001 µM): 99.4%
viability, T/C [1]: 105%
viability, T/C [2]: 93.9%
viability, T/C [3]: 113%
viability, T/C [4]: 99.4%
viability, T/C (second compound 0.1 µM, first compound 0.000316 µM): 93%
viability, T/C (second compound 0.1 µM, first compound 0.001 µM): 96.4%
viability, T/C [5]: 105%
viability, T/C [6]: 88.2%
viability, T/C [7]: 99.8%
viability, T/C [8]: 92.1%
viability, T/C (second compound 0.316 µM, first compound 0.000316 µM): 97.8%
viability, T/C (second compound 0.316 µM, first compound 0.001 µM): 92.8%
viability, T/C [9]: 90.7%
viability, T/C [10]: 86.5%
viability, T/C [11]: 103%
viability, T/C [12]: 83%
viability, T/C (second compound 1 µM, first compound 0.000316 µM): 107%
viability, T/C (second compound 1 µM, first compound 0.001 µM): 98.4%
viability, T/C [13]: 85.6%
viability, T/C [14]: 94%
viability, T/C [15]: 81.5%
viability, T/C [16]: 80.2%
viability, T/C (second compound 3.16 µM, first compound 0.000316 µM): 81.4%
viability, T/C (second compound 3.16 µM, first compound 0.001 µM): 74.4%
viability, T/C (second compound 3.16 µM, first compound 0.00316 µM): 78.2%
viability, T/C (second compound 3.16 µM, first compound 0.01 µM): 83.5%
viability, T/C (second compound 3.16 µM, first compound 0.0316 µM): 74.8%
viability, T/C (second compound 3.16 µM, first compound 0.1 µM): 70.7%
viability, T/C (second compound 10 µM, first compound 0.000316 µM): 59.9%
viability, T/C (second compound 10 µM, first compound 0.001 µM): 68.6%
viability, T/C (second compound 10 µM, first compound 0.00316 µM): 55.5%
viability, T/C (second compound 10 µM, first compound 0.01 µM): 69.7%
viability, T/C (second compound 10 µM, first compound 0.0316 µM): 65.1%
viability, T/C (second compound 10 µM, first compound 0.1 µM): 51.3%
